US20200024278A1, “COMPOSITION COMPRISING ANTIBIOTIC COMPOUND AND AN HETEROCYCLIC COMPOUND AND THEIR USE IN PREVENTING OR TREATING BACTERIAL INFECTIONS” (MUTABILIS, priority 2016, published 2020)
Read-outs that look alike come from different tables or passages of the source.

What was measured:
Experiment in all cases: MIC, broth microdilution (CLSI), substance alone or ATB combined with compound at 4 or 8 μg/mL
[1] = test system: PAE UFR48; assay type: cell-based, P. aeruginosa; conditions: Pseudomonas aeruginosa, PAE UFR48
Method in brief: (§1)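 Antibiotic MICs were determined in presence of fixed compound at 4 or 8 μg/mL, and compound MICs alone, by visual growth inhibition. Inoculum 5·10^5 CFU/mL in ca-MHB, incubated 35 °C for 16-20 h per CLSI-M7-A7. Glucose-6-phosphate (25 μg/ml) added when fosfomycin was tested.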

[2] = test system: PAE UFR90; assay type: cell-based, P. aeruginosa; conditions: Pseudomonas aeruginosa, PAE UFR90
Method in brief: as §1

[3] = test system: PAE 105250; assay type: cell-based, P. aeruginosa; conditions: Pseudomonas aeruginosa, PAE 105250
Method in brief: as §1

[4] = test system: KPN 6299; assay type: cell-based, K. pneumoniae; conditions: Klebsiella pneumoniae
Method in brief: as §1

[5] = test system: KPN UFR68; assay type: cell-based, K. pneumoniae; conditions: Klebsiella pneumoniae, substance alone
Method in brief: as §1

[6] = test system: SPN 49619; assay type: cell-based, S. pneumoniae; conditions: Streptococcus pneumoniae, SPN 49619
Method in brief: as §1

[7] = test system: ECO UFR39; assay type: cell-based, E. coli; conditions: Escherichia coli, ECO UFR39
Method in brief: as §1

[8] = test system: ECO 190317; assay type: cell-based, E. coli; conditions: Escherichia coli, ECO 190317
Method in brief: as §1

[9] = test system: SAU 29213; assay type: cell-based, S. aureus; conditions: Staphylococcus aureus
Method in brief: as §1

[10] = test system: ECL P99; assay type: cell-based, E. cloacae; conditions: Enterobacter cloacae, ECL P99
Method in brief: as §1

[11] = test system: ABA UFR155; assay type: cell-based, A. baumannii
Method: (§2) Compounds of the present invention were assessed against genotyped bacterial strains alone or in combination with an antibacterial. In the assays, MICs of said compounds or combination of antibiotics with fixed concentrations of said compounds (4 or 8 μg/mL) were determined by the broth microdilution method according to the Clinical Laboratory Standards Institute (CLSI-M7-A7). Briefly, compounds alone according to the invention were prepared in DMSO and spotted (2 μL each) on sterile polystyrene plates (Corning, 3788). Combinations of compounds and antibiotics dilutions were prepared in DMSO and spotted (1 μL each) on sterile polystyrene plates (Corning, 3788). Log phase bacterial suspensions were adjusted to a final density of 5·10^5 CFU/mL in cation-adjusted Mueller-Hinton broth (ca-MHB; Becton-Dickinson and Company) and added to each well (98 μL). Assays including Fosfomycin were supplemented with 25 μg/ml of Glucose-6-phosphate. Microplates were incubated for 16-20 h at 35° C. in ambient air. The MIC of the compounds was defined as the lowest concentration of said compounds that prevented bacterial growth as read by visual inspection. The MIC of ATB at each compound concentration was defined as the lowest concentration of ATB that prevented bacterial growth as read by visual inspection.

[12] = test system: ABA UFR156; assay type: cell-based, A. baumannii
Method: as §2

[13] = test system: ABA UFR160; assay type: cell-based, A. baumannii; conditions: with Example 6 @8 μg/ml
Method: as §2

[14] = test system: ABA UFR152; assay type: cell-based, A. baumannii
Method: as §2

[15] = test system: ABA UFR157; assay type: cell-based, A. baumannii
Method: as §2

[16] = test system: ABA UFR154; assay type: cell-based, A. baumannii
Method: as §2

[17] = test system: ABA UFR158; assay type: cell-based, A. baumannii; conditions: with Example 6 @8 μg/ml
Method: as §2

[18] = test system: ABA 19606; assay type: cell-based, A. baumannii
Method: as §2

[19] = test system: ABA UFR153; assay type: cell-based, A. baumannii
Method: as §2

[20] = test system: ABA UFR151; assay type: cell-based, A. baumannii
Method: as §2

[21] = antibiotic alone, read-out: MIC ATB alone
[22] = Acinetobacter baumannii, antibiotic alone, read-out: MIC ATB alone

Compound: C[C@@H](O)[C@H]1C(=O)N2C(C(=O)O)=C(S[C@@H]3CN[C@H](C(=O)N(C)C)C3)[C@H](C)[C@H]12 [MEM, Meropenem]
- MIC [1, 21]: 4 µg/mL
- MIC ([1]; substance alone, read-out: MIC): 4 µg/mL
- MIC [2, 21]: 2 µg/mL
- MIC ([2]; substance alone, read-out: MIC): 2 µg/mL
- MIC [3, 21]: 4 µg/mL
- MIC ([3]; substance alone, read-out: MIC): 4 µg/mL
- MIC [4, 21]: 1 µg/mL
- MIC ([4]; substance alone, read-out: MIC): 1 µg/mL
- MIC [5]: 32 µg/mL
- MIC [6, 21]: 0.063 µg/mL
- MIC ([6]; substance alone, read-out: MIC): 0.063 µg/mL
- MIC [7, 21]: 64 µg/mL
- MIC ([7]; substance alone, read-out: MIC): 64 µg/mL
- MIC [8, 21]: 0.031 µg/mL
- MIC ([8]; substance alone, read-out: MIC): 0.031 µg/mL
- MIC ([9]; MSSA): 0.125 µg/mL
- MIC ([9]; antibiotic alone, SAU 29213, read-out: MIC ATB alone): 0.125 µg/mL
- MIC [10, 21]: 0.063 µg/mL
- MIC ([10]; substance alone, read-out: MIC): 0.063 µg/mL
- MIC [11, 22]: 32 µg/mL
- MIC ATB combined with Example 1 @8 μg/ml ([11]; with Example 1 @8 μg/ml): 16 µg/mL
- MIC ATB combined with Example 3 @8 μg/ml ([11]; with Example 3 @8 μg/ml): 8 µg/mL
- MIC ATB combined with Example 6 @8 μg/ml ([11]; with Example 6 @8 μg/ml): 16 µg/mL
- MIC ATB combined with Example 9 @4 μg/ml ([11]; with Example 9 @4 μg/ml): 16 µg/mL
- MIC ATB combined with Example 10 @8 μg/ml ([11]; with Example 10 @8 μg/ml): 8 µg/mL
- MIC ATB combined with Example 11 @8 μg/ml ([11]; with Example 11 @8 μg/ml): 16 µg/mL
- MIC ATB combined with Example 12 @8 μg/ml ([11]; with Example 12 @8 μg/ml): 16 µg/mL
- MIC ATB combined with Example 15 @4 μg/ml ([11]; with Example 15 @4 μg/ml): 64 µg/mL
- MIC [12, 22]: 64 µg/mL
- MIC ATB combined with Example 1 @8 μg/ml ([12]; with Example 1 @8 μg/ml): 64 µg/mL
- MIC ATB combined with Example 3 @8 μg/ml ([12]; with Example 3 @8 μg/ml): 8 µg/mL
- MIC ATB combined with Example 6 @8 μg/ml ([12]; with Example 6 @8 μg/ml): 16 µg/mL
- MIC ATB combined with Example 9 @4 μg/ml ([12]; with Example 9 @4 μg/ml): 64 µg/mL
- MIC ATB combined with Example 10 @8 μg/ml ([12]; with Example 10 @8 μg/ml): 8 µg/mL
- MIC ATB combined with Example 11 @8 μg/ml ([12]; with Example 11 @8 μg/ml): 64 µg/mL
- MIC ATB combined with Example 12 @8 μg/ml ([12]; with Example 12 @8 μg/ml): 32 µg/mL
- MIC ATB combined with Example 15 @4 μg/ml ([12]; with Example 15 @4 μg/ml): 64 µg/mL
- MIC ATB combined with Example 6 @8 μg/ml [13]: <0.25 µg/mL
- MIC [14, 22]: 2 µg/mL
- MIC ATB combined with Example 1 @8 μg/ml ([14]; with Example 1 @8 μg/ml): 4 µg/mL
- MIC ATB combined with Example 3 @8 μg/ml ([14]; with Example 3 @8 μg/ml): 1 µg/mL
- MIC ATB combined with Example 6 @8 μg/ml ([14]; with Example 6 @8 μg/ml): 2 µg/mL
- MIC ATB combined with Example 9 @4 μg/ml ([14]; with Example 9 @4 μg/ml): 1 µg/mL
- MIC ATB combined with Example 10 @8 μg/ml ([14]; with Example 10 @8 μg/ml): 1 µg/mL
- MIC ATB combined with Example 11 @8 μg/ml ([14]; with Example 11 @8 μg/ml): 1 µg/mL
- MIC ATB combined with Example 12 @8 μg/ml ([14]; with Example 12 @8 μg/ml): 1 µg/mL
- MIC ATB combined with Example 15 @4 μg/ml ([14]; with Example 15 @4 μg/ml): 1 µg/mL
- MIC [15, 22]: 32 µg/mL
- MIC ATB combined with Example 1 @8 μg/ml ([15]; with Example 1 @8 μg/ml): 1 µg/mL
- MIC ATB combined with Example 3 @8 μg/ml ([15]; with Example 3 @8 μg/ml): <=0.25 μg/mL
- MIC ATB combined with Example 6 @8 μg/ml ([15]; with Example 6 @8 μg/ml): <=0.25 μg/mL
- MIC ATB combined with Example 9 @4 μg/ml ([15]; with Example 9 @4 μg/ml): 1 µg/mL
- MIC ATB combined with Example 10 @8 μg/ml ([15]; with Example 10 @8 μg/ml): 0.5 µg/mL
- MIC ATB combined with Example 11 @8 μg/ml ([15]; with Example 11 @8 μg/ml): 0.5 µg/mL
- MIC ATB combined with Example 12 @8 μg/ml ([15]; with Example 12 @8 μg/ml): <=0.25 μg/mL
- MIC ATB combined with Example 15 @4 μg/ml ([15]; with Example 15 @4 μg/ml): 0.5 µg/mL
- MIC [16, 22]: 1 µg/mL
- MIC ATB combined with Example 1 @8 μg/ml ([16]; with Example 1 @8 μg/ml): 0.5 µg/mL
- MIC ATB combined with Example 3 @8 μg/ml ([16]; with Example 3 @8 μg/ml): <=0.25 μg/mL
- MIC ATB combined with Example 6 @8 μg/ml ([16]; with Example 6 @8 μg/ml): 0.5 µg/mL
- MIC ATB combined with Example 9 @4 μg/ml ([16]; with Example 9 @4 μg/ml): 0.5 µg/mL
- MIC ATB combined with Example 10 @8 μg/ml ([16]; with Example 10 @8 μg/ml): <=0.25 μg/mL
- MIC ATB combined with Example 11 @8 μg/ml ([16]; with Example 11 @8 μg/ml): 1 µg/mL
- MIC ATB combined with Example 12 @8 μg/ml ([16]; with Example 12 @8 μg/ml): <=0.25 μg/mL
- MIC ATB combined with Example 15 @4 μg/ml ([16]; with Example 15 @4 μg/ml): 0.5 µg/mL
- MIC ATB combined with Example 6 @8 μg/ml [17]: <0.25 µg/mL
- MIC [18, 22]: 1 µg/mL
- MIC ATB combined with Example 1 @8 μg/ml ([18]; with Example 1 @8 μg/ml): 1 µg/mL
- MIC ATB combined with Example 3 @8 μg/ml ([18]; with Example 3 @8 μg/ml): <=0.25 μg/mL
- MIC ATB combined with Example 6 @8 μg/ml ([18]; with Example 6 @8 μg/ml): <=0.25 μg/mL
- MIC ATB combined with Example 9 @4 μg/ml ([18]; with Example 9 @4 μg/ml): 2 µg/mL
- MIC ATB combined with Example 10 @8 μg/ml ([18]; with Example 10 @8 μg/ml): <=0.25 μg/mL
- MIC ATB combined with Example 11 @8 μg/ml ([18]; with Example 11 @8 μg/ml): 0.5 µg/mL
- MIC ATB combined with Example 12 @8 μg/ml ([18]; with Example 12 @8 μg/ml): <=0.25 μg/mL
- MIC ATB combined with Example 15 @4 μg/ml ([18]; with Example 15 @4 μg/ml): 0.5 µg/mL
- MIC [19, 22]: 1 µg/mL
- MIC ATB combined with Example 1 @8 μg/ml ([19]; with Example 1 @8 μg/ml): 1 µg/mL
- MIC ATB combined with Example 3 @8 μg/ml ([19]; with Example 3 @8 μg/ml): <=0.25 μg/mL
- MIC ATB combined with Example 6 @8 μg/ml ([19]; with Example 6 @8 μg/ml): <0.25 µg/mL
- MIC ATB combined with Example 9 @4 μg/ml ([19]; with Example 9 @4 μg/ml): <=0.25 μg/mL
- MIC ATB combined with Example 10 @8 μg/ml ([19]; with Example 10 @8 μg/ml): <=0.25 μg/mL
- MIC ATB combined with Example 11 @8 μg/ml ([19]; with Example 11 @8 μg/ml): 1 µg/mL
- MIC ATB combined with Example 12 @8 μg/ml ([19]; with Example 12 @8 μg/ml): <=0.25 μg/mL
- MIC ATB combined with Example 15 @4 μg/ml ([19]; with Example 15 @4 μg/ml): <=0.25 μg/mL
- MIC [20, 22]: 0.5 µg/mL
- MIC ATB combined with Example 1 @8 μg/ml ([20]; with Example 1 @8 μg/ml): <=0.25 μg/mL
- MIC ATB combined with Example 3 @8 μg/ml ([20]; with Example 3 @8 μg/ml): <=0.25 μg/mL
- MIC ATB combined with Example 6 @8 μg/ml ([20]; with Example 6 @8 μg/ml): <=0.25 μg/mL
- MIC ATB combined with Example 9 @4 μg/ml ([20]; with Example 9 @4 μg/ml): <=0.25 μg/mL
- MIC ATB combined with Example 10 @8 μg/ml ([20]; with Example 10 @8 μg/ml): <=0.25 μg/mL
- MIC ATB combined with Example 11 @8 μg/ml ([20]; with Example 11 @8 μg/ml): 0.5 µg/mL
- MIC ATB combined with Example 12 @8 μg/ml ([20]; with Example 12 @8 μg/ml): <=0.25 μg/mL
- MIC ATB combined with Example 15 @4 μg/ml ([20]; with Example 15 @4 μg/ml): 0.5 µg/mL
